Laboratory results taken from patent US6509163B1, “Methods of screening modulators of mammalian P2X7 purinergic receptors” (Glaxo Group Limited, priority 1997, dated 2003).
Read-outs that look alike come from different tables or passages of the source.

What was measured:
Format in all cases: cell-based
P2X7 receptor [1] = target: T1, P2X7 receptor (Rattus norvegicus, UniProt Q64663); assay: YO-PRO-1 uptake, cell counts, in HEK cells stably expressing P2X7 receptor; details: incubation with BzATP for 3 to 5 min, low concentration of divalent cations
T1 construct: yielding a construct that encoded the entire P2X7 protein; expressed in transfected cells
T1 sequence (Q64663 1-595): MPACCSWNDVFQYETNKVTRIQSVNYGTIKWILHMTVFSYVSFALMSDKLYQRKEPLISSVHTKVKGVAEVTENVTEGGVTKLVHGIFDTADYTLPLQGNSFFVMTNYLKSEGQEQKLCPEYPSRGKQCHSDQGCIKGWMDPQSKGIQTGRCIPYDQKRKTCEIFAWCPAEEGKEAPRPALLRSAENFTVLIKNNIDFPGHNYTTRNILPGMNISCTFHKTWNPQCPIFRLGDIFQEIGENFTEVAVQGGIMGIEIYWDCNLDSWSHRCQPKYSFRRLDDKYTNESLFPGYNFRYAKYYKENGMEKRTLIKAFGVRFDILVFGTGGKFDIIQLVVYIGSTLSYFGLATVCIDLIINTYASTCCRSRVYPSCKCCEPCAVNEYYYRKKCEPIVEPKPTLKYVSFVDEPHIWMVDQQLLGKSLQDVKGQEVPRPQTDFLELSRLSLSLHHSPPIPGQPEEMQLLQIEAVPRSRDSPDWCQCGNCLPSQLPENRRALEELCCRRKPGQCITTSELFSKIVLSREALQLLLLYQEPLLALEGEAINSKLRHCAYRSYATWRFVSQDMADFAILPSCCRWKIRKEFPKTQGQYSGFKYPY
Procedure: YO-PRO-1 (10 μM; Molecular Probes, Eugene, Oreg.) was added to the superfusion fluid during electrophysiological recordings 3 to 6 min before switching to low divalent solution and washed out upon switching back to normal divalent solution, after which the fluorescent lamp was turned on and cells were examined with a fluorescein isothiocyanate filter. For cell counts, 500 cells per cover slip were counted in each case.

P2X7 receptor [2] = target: T1, P2X7 receptor; assay: Whole-cell recordings of agonist-evoked currents in HEK293 cells transfected with rat P2X7 cDNA (Example 2); details: for EC50: read-out: EC50 (half-maximal concentration) for current
Procedure: Whole-cell recordings were obtained at room temperature from HEK293 cells transiently or stably transfected with P2X7 cDNA, from HEK293 cells transiently transfected with P2X7ΔC cDNA, and from J774A.1 cells (American Type Culture Collection, Rockville, Md.). Agonist were applied for periods of 1 to 3 s by a fast-flow U-tube delivery system (Fenwick et al, J. Physiol. (London) 331:577 (1982)). The internal pipette solution was 140 mM cesium-aspartate or potassium-aspartate, 20 mM NaCl, 10 mM EGTA, and 5 mM Hepes: normal external solution was 145 mM NaCl, 2 mM KCl, 2 mM CaCl2, 1 mM MgCl2, 10 mM Hepes, and 12 mM glucose. Low divalent external solution was nominally magnesium-free with 0.3 mM CaCl2. For cells expressing P2X7 receptors and J774 cells, concentration-response curves were constructed in low divalent solution by recording currents in response to 1-s applications of agonist at 8-min intervals with normal external solution present for 6 min before each application. This protocol was necessary to prevent the development of sustained inward currents. Lipofectin was used for transfection (Buell et al, EMBO J. 15:55 (1996)).
Reversal potentals (Erev) were obtained by application of ATP (300 μM) or BzATP (30 μM) while the membrane was held at various potentals or by application of voltage ramps from −120 to 30 or 50 mV. Permeability ratios from (Erev) were calculated by first computing α (=Pna/PK, where P is permeability) for internal (i) and external (o) concentrations [Na]i=20 mM, [Na]o=145 mM, [Ko]=0 mM, and [K]i=140 mM from α={[145/exp(Erev)F/RT −20]}/140 (where F is the Faraday, R is the gas constant, and T is the absolute temperature). Other PK/PNa values, when [X]o=145 mM, [Na]i=20 mM, [K]i=140 mM, and [Na]o=[K]o=[X]i=0 mM, were computed from PK/PNa={[exp (ErevF/RT) (20=140α)}/145. In order of size (FIG. 3C), X was cesium, methylamine, tris(hydroxymethyl)-aminomethane, tetraethylammonium, and N-methyl-D-glucamine. The internal solution also contained 10 mM EGTA and 5 mM Hepes. External solutions also contained 10 mM glucose and normal or low concentrations of divalent cations; pH was maintained at 7.3 with HCl, histidine, or Hepes as required, and the osmolarity of all solutions was 295 to 315.

P2X7ΔC receptor = target: T2, P2X7ΔC receptor (Rattus norvegicus, UniProt Q64663); assay: Whole-cell recordings in HEK293 cells transiently transfected with P2X7ΔC cDNA; details: 30 μM BzATP, normal solution, holding potential −70 mV, transiently transfected HEK cells, n=18
T2 construct: the resulting protein (P2X7ΔC) was P2X7 (1-418); expressed in transfected cells; host or cells: HEK293 (transient)
T2 sequence (Q64663 1-418): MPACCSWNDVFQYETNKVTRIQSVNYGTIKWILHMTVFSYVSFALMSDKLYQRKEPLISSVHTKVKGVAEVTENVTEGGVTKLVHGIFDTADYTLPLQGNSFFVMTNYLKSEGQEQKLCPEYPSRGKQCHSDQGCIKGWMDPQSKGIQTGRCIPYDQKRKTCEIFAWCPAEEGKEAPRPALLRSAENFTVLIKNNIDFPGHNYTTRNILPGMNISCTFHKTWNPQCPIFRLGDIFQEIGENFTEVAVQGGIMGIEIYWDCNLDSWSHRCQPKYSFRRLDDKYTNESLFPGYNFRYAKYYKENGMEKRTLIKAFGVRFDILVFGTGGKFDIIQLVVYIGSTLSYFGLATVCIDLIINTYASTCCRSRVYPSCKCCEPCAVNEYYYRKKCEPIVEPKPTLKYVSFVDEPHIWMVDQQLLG
From the text: A 440-base pair (bp) fragment of P2X7 was amplified with inosine-containing degenerate oligonucleotides from several peripheral autonomic ganglia (Buell et al, EMBO J. 15:55 (1996)). […] An additional 468 bp of 5′ cDNA was cloned by rapid amplification of cDNA ends-polymerase chain reaction (RACE-PCR; Life Technologies, Bethesda, MD) using poly(A)^+ RNA from the medial habenula. P2X7 receptor-specific sequences were amplified with two rounds of nested PCR, for which sense primers were […] and […] and antisense primers were […] and […]. A shared restriction site (Bgl II) permitted ligation of the RACE-PCR product and of the partial cDNA, yielding a construct that encoded the entire P2X7 protein. This chimera (GenBank accession number X95882) was expressed in pcDNA3 (Invitrogen, San Diego, Calif.), sequenced by fluorescent DNA sequencing (Perkin Elmer, Foster City, Calif.), and confirmed by isolation of other full-length P2X7 cDNAs from a rat brain cDNA library (Clontech, Palo Alto, Calif.). One of these included a stop codon 130 bp upstream from the ATG. The COOH-terminus was removed by excision of a Xcm I-Not I fragment, and the resulting protein (P2X7ΔC) was P2X7 (1-418). […]

SMILES: Nc1ncnc2c1ncn2[C@@H]1O[C@H](COP(=O)(O)OP(=O)(O)OP(=O)(O)O)[C@@H](OC(=O)c2ccc(C(=O)c3ccccc3)cc2)[C@H]1O [BzATP, 3′-O-(4-benzoyl)benzoyl ATP]
- stably transfected cells that took up YO-PRO-1 (P2X7 receptor [1]): > 85%
- Current amplitude (mean±SEM) to BzATP (P2X7 receptor [2]; 30 μM BzATP, normal solution, holding potential −70 mV, transiently transfected HEK cells, n=18): 636±118 pA
- EC50 (P2X7 receptor [2]; normal solution (2 mM CaCl2, 1 mM MgCl2), n=4): 7 ± 2 µM
- EC50 (P2X7 receptor [2]; zero magnesium, n=7): 3.7 ± 0.7 µM
- Current amplitude (mean±SEM) to BzATP (P2X7ΔC receptor): 590±95 pA
